The source of these data is US20240115557A1, “INHIBITORS OF RNA-GUIDED NUCLEASES AND USES THEREOF” (The Brigham and Women's Hospital, Inc., priority 2022, published 2024).

For the test, the target named is T1, SaCas9 (Staphylococcus aureus, UniProt J7RUA5).
T1 sequence (J7RUA5 1-1053): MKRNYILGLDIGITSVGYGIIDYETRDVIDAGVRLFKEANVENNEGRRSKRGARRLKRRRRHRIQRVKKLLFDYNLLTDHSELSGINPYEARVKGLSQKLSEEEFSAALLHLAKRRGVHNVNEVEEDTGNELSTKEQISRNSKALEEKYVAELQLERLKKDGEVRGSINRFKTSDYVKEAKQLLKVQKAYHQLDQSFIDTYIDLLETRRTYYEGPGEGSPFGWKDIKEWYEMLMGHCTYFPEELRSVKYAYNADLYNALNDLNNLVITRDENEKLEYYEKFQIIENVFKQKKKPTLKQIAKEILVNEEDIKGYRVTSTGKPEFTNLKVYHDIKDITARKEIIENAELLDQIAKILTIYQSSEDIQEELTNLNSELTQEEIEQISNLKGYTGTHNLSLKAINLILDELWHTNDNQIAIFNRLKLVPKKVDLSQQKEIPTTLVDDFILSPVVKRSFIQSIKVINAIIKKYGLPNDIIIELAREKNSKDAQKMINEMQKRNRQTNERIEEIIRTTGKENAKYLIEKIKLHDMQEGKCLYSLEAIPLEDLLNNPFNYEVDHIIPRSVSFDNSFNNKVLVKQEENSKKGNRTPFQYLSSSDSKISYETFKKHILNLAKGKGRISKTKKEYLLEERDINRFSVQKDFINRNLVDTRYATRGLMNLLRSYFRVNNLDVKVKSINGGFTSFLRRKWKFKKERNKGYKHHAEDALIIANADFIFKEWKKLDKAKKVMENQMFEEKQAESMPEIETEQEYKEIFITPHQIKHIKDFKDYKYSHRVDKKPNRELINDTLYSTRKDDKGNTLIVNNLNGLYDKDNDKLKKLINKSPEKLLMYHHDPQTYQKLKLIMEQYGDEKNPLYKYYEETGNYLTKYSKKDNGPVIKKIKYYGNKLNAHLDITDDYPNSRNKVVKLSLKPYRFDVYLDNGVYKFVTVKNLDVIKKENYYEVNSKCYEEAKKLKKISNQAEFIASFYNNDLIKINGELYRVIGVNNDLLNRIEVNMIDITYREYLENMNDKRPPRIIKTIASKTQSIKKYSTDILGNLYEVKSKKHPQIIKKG
Description: Strand displacement assay, SaCas9 primary screen. The class given is biochemical. The conditions noted are these: for Auto Zscore Rep 1 / Auto Zscore Rep 2 / Normalized Zscore Rep 1 / Normalized Zscore Rep 2: SaCas9 primary screen; for Auto Zscore Rep 1 / Normalized Zscore Rep 1: replicate 1; for Auto Zscore Rep 2 / Normalized Zscore Rep 2: replicate 2; for Normalized Zscore Rep 1 / Normalized Zscore Rep 2: weaker potential hits; for 3 sigma Hit: flag 1 = hit at 3 sigma; for 5 sigma Hit: flag 1 = hit at 5 sigma. The procedure:
An overview of the screening for SaCas9 inhibitors is depicted in FIG. 14. A total of 43,168 Compounds were screened from the ICCB Libraries. Libraries screened for the initial compounds include ChemDiv 7 (34,848 cpds), Enamine 1 (5,280 cpds), ChemDiv1 (1,760 cpds), NIH Clinical Collection (450 cpds), Biomol 4—FDA Approved Library (640 cpds). A hit is determined from the Zscore, with 3-5σ being a weak hit, >5σ being a strong hit. The results of the hits include 193 Weak Hits and 249 Strong Hits. The NIH Clinical Collection 1-2014 was screened for 450 of 450 compounds, with 7 hits—1.5%. The Biomol 4—FDA Approved Library was screened for 640 of 640 compounds, with 8 hits—1.2%. […] Enamine 1 was screened for 5,280 of 6,004 compounds, with 44 hits—0.83%. Libraries are commercially available, with reference numbers utilized for compounds identifying the compound structures used. […]
Generalization of CAA to other Cas nucleases. Applicants sought to generalize CAA to other CRISPR-associated nucleases, including from Staphylococcus aureus (SaCas9). Given the similarities between SaCas9 and SpCas9 modes of DNA-substrate binding and protein folding,^26, 27 Applicants hypothesized that SaCas9-induced strand displacement could be similarly measured. Indeed, fluorescence quenching correlated with substrate cleavage in the CAA assay with active SaCas9:gRNA and an ACGGGT PAM sequence, which was validated with gel electrophoresis (FIG. 62F,G and FIG. 69F).
First, Applicants optimized various components and conditions of the strand displacement assay for Cas enzyme activity and generality with different Cas such as SpCas9 (FIG. 62B) or SaCas9 (FIG. 69F) or FnCas12a (FIG. 70A,B). Typically, SpCas9: gRNA (1:1.2 ratio) RNP was pre-formed at 1 μM in Cas9 assay buffer (20 mM Tris-HCl, pH=7.5, 100 mM KCl, 5 mM MgCl2) for 5 min at 4° C. before diluting to 10 nM in Cas9 assay buffer (2× final concentration). 25 μL of the Cas9 2× stock was manually dispensed to a black 384-well plate (Corning 3575) using electronic pipette. Apo SpCas9 (without guide RNA) was used at the same concentration as a control for no activity (mock inhibition). Following this, pre-annealed Alexa-Fluor 647 labeled substrate and quencher were also diluted to 1 nM and 5 nM in Cas9 assay buffer, respectively (2× stock solution). Next, 25 μL of the substrate/quencher solution was added manually to each well of the Cas9-containing 384-well plates using an electronic pipette and was incubated at 37° C. for 2.5 h. Fluorescent signals were read with the microplate reader set to read Alexa-Fluor 647 fluorescence. Assay was performed similarly with SaCas9 and FnCas12a using the respective enzyme, gRNA, substrate, and quencher oligos. Applicants similarly divulged the effect of PAM sequences of dsDNA on its assay specificity using TGG, TGC, AAC PAM containing substrates for SpCas9 (FIG. 62C), and ACGGGT, ACGGTT, TGCCCA PAM substrate for SaCas9 (FIG. 62F) and TTTC, TTGC, AAAG PAM substrates for FnCpf1 (FIG. 63B-C). Applicants also optimized the effective concentration of DS-AF647 and SS-AF647 fluorophores (FIG. 64A), DS-substrate to SpCas9 RNP ratio (FIG. 64B) and substrate to quencher ratio (FIG. 64C) on assay performance. Similarly, Applicants performed a time course experiment to establish the time required for maximum completion of the reaction at various substrate to SpCas9 RNP ratios (FIG. 64D).

As to `Cc1cccc(Cn2c(SCC(O)CO)nc3c2c(=O)[nH]c(=O)n3C)c1` (stereo not drawn) [Compound D226-0165], the “Auto Zscore Rep 1” value is −0.346, the “Auto Zscore Rep 2” value is −0.1307, the “Normalized Zscore Rep 1” value came to 0.1224 and the “Normalized Zscore Rep 2” value amounted to 0.1125. Also, the “3 sigma Hit” value was 1.
With `COc1ccc(-c2[nH]nc3nc(-c4ccc(O)c(O)c4)cc(C(=O)O)c23)cc1` [Cpd C202-1892], the “Auto Zscore Rep 1” value is −1.82, the “Auto Zscore Rep 2” value is −0.3926, the “Normalized Zscore Rep 1” value stood at 0.4084 and the “Normalized Zscore Rep 2” value was 0.4043. Further, the “3 sigma Hit” value stood at 1 and the “5 sigma Hit” value came to 1.
`c1ccc(CCCNc2nn3nnnc3c3ccccc23)cc1` [Cpd C301-8945]: the “Auto Zscore Rep 1” value amounted to 0.8868, the “Auto Zscore Rep 2” value amounted to 0.9986, the “Normalized Zscore Rep 1” value is 0.2248 and the “Normalized Zscore Rep 2” value came to 0.1621. Further, the “3 sigma Hit” value is recorded as 1.
The matching figures for `COc1ccc2cc3c(N)nn(C(=O)c4ccncc4)c3nc2c1` [Cpd C594-0003]: −0.6022, 0.6643, 0.2515, 0.1978 and 1.
The matching figures for `COc1ccc2cc3c(N)nn(C(=O)c4ccc(F)cc4)c3nc2c1` [Cpd C594-0010]: 0.8616, −0.4814, 0.1698, 0.2567 and 1.
With `Cn1nc(-c2ccc(Cl)cc2)c2cc(C(=O)O)sc21` [Cpd C660-1021], the “Auto Zscore Rep 1” value turned out to be 1.316, the “Auto Zscore Rep 2” value turned out to be 1.188, the “Normalized Zscore Rep 1” value is 0.2339 and the “Normalized Zscore Rep 2” value was 0.1885. Moreover, the “3 sigma Hit” value is on record as 1 and the “5 sigma Hit” value is 1.
Take `Cc1nn2c(=O)cc(COc3ccc(C)c(C)c3)nc2s1` [Cpd C679-2752]: the “Auto Zscore Rep 1” value came to 0.9351, the “Auto Zscore Rep 2” value is given as −0.9427, the “Normalized Zscore Rep 1” value is reported as 0.5034 and the “Normalized Zscore Rep 2” value is listed as 0.5292. The “3 sigma Hit” value turned out to be 1 and the “5 sigma Hit” value turned out to be 1.
`Cc1nnc(NC(=O)CSc2ccc3nnc(-c4ccc(F)cc4)n3n2)s1` [Cpd C742-0312]: the “Auto Zscore Rep 1” value is on record as −0.0443, the “Auto Zscore Rep 2” value was −0.6268, the “Normalized Zscore Rep 1” value stood at 0.1897 and the “Normalized Zscore Rep 2” value came out at 0.2665. The “3 sigma Hit” value is 1.
For the compound `Cc1nnc(NC(=O)CSc2ccc3nnc(-c4cccc(F)c4)n3n2)s1` [Cpd C742-0431], the “Auto Zscore Rep 1” value is −0.06844, the “Auto Zscore Rep 2” value turned out to be 0.2074, the “Normalized Zscore Rep 1” value was found to be 0.342 and the “Normalized Zscore Rep 2” value stood at 0.3107. The “3 sigma Hit” value turned out to be 1 and the “5 sigma Hit” value was determined as 1.
As for `O=C(c1ccccc1)c1cnc2ccc(F)cc2c1S(=O)(=O)c1ccc(F)cc1` [Cpd C770-0245], the “Auto Zscore Rep 1” value worked out at 0.1661, the “Auto Zscore Rep 2” value worked out at 0.1101, the “Normalized Zscore Rep 1” value is on record as 0.2065 and the “Normalized Zscore Rep 2” value is 0.1929. Moreover, the “3 sigma Hit” value amounted to 1.
For the compound `COc1cccc(CNCc2cccn2-c2sc(C)c(C)c2C(=O)O)c1` [Cpd C795-1664], the “Auto Zscore Rep 1” value was 0.429, the “Auto Zscore Rep 2” value is 0.8302, the “Normalized Zscore Rep 1” value is listed as 0.3494 and the “Normalized Zscore Rep 2” value is 0.3285. For the same compound, the “3 sigma Hit” value came to 1 and the “5 sigma Hit” value was found to be 1.
As to `CCSc1nc2c(c(=O)[nH]1)C(c1ccc(O)c(O)c1)CC(=O)N2` (stereo not drawn) [Cpd D271-0002], the “Auto Zscore Rep 1” value is on record as −0.5592, the “Auto Zscore Rep 2” value turned out to be 0.1026, the “Normalized Zscore Rep 1” value is listed as 0.2655 and the “Normalized Zscore Rep 2” value is listed as 0.3207. Moreover, the “3 sigma Hit” value turned out to be 1 and the “5 sigma Hit” value was found to be 1.
For the compound `O=C1CC(c2ccc(O)c(O)c2)c2c(nc(SCc3ccccc3)[nH]c2=O)N1` (stereo not drawn) [Cpd D271-0007], the “Auto Zscore Rep 1” value is recorded as −1.4647, the “Auto Zscore Rep 2” value is −0.1946, the “Normalized Zscore Rep 1” value is given as 0.1942 and the “Normalized Zscore Rep 2” value was found to be 0.18. For the same compound, the “3 sigma Hit” value was determined as 1 and the “5 sigma Hit” value stood at 1.
Consider `Cc1ccc(CSc2nc3c(c(=O)[nH]2)C(c2ccc(O)c(O)c2)CC(=O)N3)cc1` (stereo not drawn) [Cpd D271-0008], for which the “Auto Zscore Rep 1” value is recorded as −0.4729, the “Auto Zscore Rep 2” value was −0.3637, the “Normalized Zscore Rep 1” value stood at 0.198 and the “Normalized Zscore Rep 2” value is 0.181. In addition, the “3 sigma Hit” value is listed as 1 and the “5 sigma Hit” value is given as 1.
In the case of `O=C1CC(c2ccc(O)c(O)c2)c2c(nc(SCc3ccc(Cl)cc3)[nH]c2=O)N1` (stereo not drawn) [Cpd D271-0011], the “Auto Zscore Rep 1” value is reported as −2.7, the “Auto Zscore Rep 2” value is −0.04169, the “Normalized Zscore Rep 1” value is on record as 0.1797 and the “Normalized Zscore Rep 2” value is reported as 0.2066. The “3 sigma Hit” value is reported as 1 and the “5 sigma Hit” value was determined as 1.
In the case of `O=C1CC(c2ccc(O)c(O)c2)c2c(nc(SCc3cccc(Cl)c3)[nH]c2=O)N1` (stereo not drawn) [Cpd D271-0012], the “Auto Zscore Rep 1” value stood at 0.2548, the “Auto Zscore Rep 2” value amounted to 0.7649, the “Normalized Zscore Rep 1” value is listed as 0.1908 and the “Normalized Zscore Rep 2” value is listed as 0.1893. The “3 sigma Hit” value worked out at 1 and the “5 sigma Hit” value turned out to be 1.
